Test results: PubChem BioAssay (NCI)
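The compound was tested at five concentrations on cells cultured in 96-well plates, with a 48-hour exposure period. At the TGI there is no net growth.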

Columns and labels:
Assay in all cases: NCI-60 cell line screen, 48 h
M19-MEL melanoma = tested on: M19-MEL melanoma
UACC-257 melanoma = tested on: UACC-257 melanoma
MDA-N = tested on: MDA-N
MDA-MB-231 breast = tested on: MDA-MB-231 breast
HS 578T breast = tested on: HS 578T breast

SMILES | TGI (M19-MEL melanoma) | TGI (UACC-257 melanoma) | TGI (MDA-N) | TGI (MDA-MB-231 breast) | TGI (HS 578T breast)
COc1c2c(c3ccccc3c1O)C1C=CC2C1 (stereo not given) | 5.46 µM | – | – | – | –
Nc1[nH]nc2nc3ccccc3nc12 | – | > 100 µM | > 100 µM | > 100 µM | > 100 µM
